These compounds were tested on 293T-HRE-GFP-luc cells (assay: Cell-based reporter assay for IC50 determinations (HRE-luciferase, hypoxia)). Settings: 6 h, 6 hrs hypoxia (1% O2), luminescence.
In short: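 293T-HRE-GFP-luc cells were pre-incubated with serially diluted compounds for 30 min under normoxia, then held 6 hrs in hypoxia (1% O2, 37° C). HRE-driven luciferase read by Steadylite Plus luminescence; IC50 from four-parameter logistic fit.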
For `COCCOc1cccc(Cn2cc(-c3noc(-c4cnc(NC(C)C)nc4)n3)ccc2=O)c1` [Example 248, 1-{[3-(2-methoxyethoxy)phenyl]methyl}-5-(5-{2-[(propan-2-yl)amino]pyrimidin-5-yl}-1,2,4-oxadiazol-3-yl)-1,2-dihydropyridin-2-one], the IC50 was < 100 nM.
In the case of `COCCOc1cccc(Cn2cc(-c3noc(-c4cnc(NC(C)(C)C)nc4)n3)ccc2=O)c1` [Example 249, 5-{5-[2-(tert-butylamino)pyrimidin-5-yl]-1,2,4-oxadiazol-3-yl}-1-{[3-(2-methoxyethoxy)phenyl]methyl}-1,2-dihydropyridin-2-one], the IC50 is reported as < 100 nM.
`COCCOc1cccc(Cn2cc(-c3noc(-c4cnc(N5CCS(=O)(=O)CC5)nc4)n3)ccc2=O)c1` [Example 250, 5-(5-(2-(1,1-dioxidothiomorpholino)pyrimidin-5-yl)-1,2,4-oxadiazol-3-yl)-1-(3-(2-methoxyethoxy)benzyl)pyridin-2(1H)-one] gave an IC50 of 100 to 1000 nM.
`O=c1ccc(-c2cc(-c3ccc(OC(F)(F)F)cc3)no2)cn1Cc1cccc(N2CCS(=O)(=O)CC2)c1` [Example 251, 1-(3-(1,1-dioxidothiomorpholino)benzyl)-5-(3-(4-(trifluoromethoxy)phenyl)isoxazol-5-yl)pyridin-2(1H)-one] was tested, and the IC50 was < 100 nM.
With `O=c1ccc(-c2cc(-c3ccc(OC(F)(F)F)cc3)no2)cn1Cc1cccc(N2CCCS2(=O)=O)c1` [Example 252, 1-(3-(1,1-dioxidoisothiazolidin-2-yl)benzyl)-5-(3-(4-(trifluoromethoxy)phenyl)isoxazol-5-yl)pyridin-2(1H)-one] the IC50 was < 100 nM.
`O=c1ccc(-c2cc(-c3ccc(OC(F)(F)F)cc3)no2)cn1Cc1cccc(NC2CCS(=O)(=O)CC2)c1` [Example 253, 1-(3-((1,1-dioxidotetrahydro-2H-thiopyran-4-yl)amino)benzyl)-5-(3-(4-(trifluoromethoxy)phenyl)isoxazol-5-yl)pyridin-2(1H)-one] was tested, and the IC50 was < 100 nM.
With `O=c1ccc(-c2cc(-c3ccc(OC(F)(F)F)cc3)no2)cn1Cc1cccc(NC2CCCS(=O)(=O)C2)c1` (stereo not drawn) [Example 254, 1-(3-((1,1-dioxidotetrahydro-2H-thiopyran-3-yl)amino)benzyl)-5-(3-(4-(trifluoromethoxy)phenyl)isoxazol-5-yl)pyridin-2(1H)-one] the IC50 was < 100 nM.
With `CC(C)c1ccc(-c2cc(-c3ccc(=O)n(Cc4cccc(N5CCC(S(C)(=O)=O)CC5)c4)c3)no2)cc1` [Example 255, 5-(5-(4-isopropylphenyl)isoxazol-3-yl)-1-(3-(4-(methylsulfonyl)piperidin-1-yl)benzyl)pyridin-2(1H)-one] the IC50 was < 100 nM.
Work on `COCCOc1cccc(Cn2cc(-c3nnc(-c4ccc(OC(F)F)cc4)o3)ccc2=O)c1` [Example 257, 5-{5-[4-(difluoromethoxy)phenyl]-1,3,4-oxadiazol-2-yl}-1-{[3-(2-methoxyethoxy)phenyl]methyl}-1,2-dihydropyridin-2-one] yielded an IC50 of 100 to 1000 nM.
Compound `COCCOc1cccc(Cn2cc(-c3nnc(-c4ccc(S(=O)(=O)C(F)(F)F)cc4)o3)ccc2=O)c1` [Example 258, 1-{[3-(2-methoxyethoxy)phenyl]methyl}-5-[5-(4-trifluoromethanesulfonylphenyl)-1,3,4-oxadiazol-2-yl]-1,2-dihydropyridin-2-one] has an IC50 of 100 to 1000 nM.
For `CS(=O)(=O)CCCOc1cccc(Cn2cc(-c3nnc(-c4ccc(S(=O)(=O)C(F)(F)F)cc4)o3)ccc2=O)c1` [Example 259, 1-{[3-(3-methanesulfonylpropoxy)phenyl]methyl}-5-[5-(4-trifluoromethanesulfonylphenyl)-1,3,4-oxadiazol-2-yl]-1,2-dihydropyridin-2-one], the IC50 was < 100 nM.
`CC(C)(O)c1cccc(Cn2cc(-c3nnc(-c4ccc(S(=O)(=O)C(F)(F)F)cc4)o3)ccc2=O)c1` [Example 260, 1-{[3-(2-hydroxypropan-2-yl)phenyl]methyl}-5-[5-(4-trifluoromethanesulfonylphenyl)-1,3,4-oxadiazol-2-yl]-1,2-dihydropyridin-2-one] showed an IC50 of 100 to 1000 nM.
With `CC(C)(O)c1cccc(Cn2cc(-c3nnc(-c4ccc(OC(F)F)cc4)o3)ccc2=O)c1` [Example 261, 5-{5-[4-(difluoromethoxy)phenyl]-1,3,4-oxadiazol-2-yl}-1-{[3-(2-hydroxypropan-2-yl)phenyl]methyl}-1,2-dihydropyridin-2-one] the IC50 was 100 to 1000 nM.
In the case of `CS(=O)(=O)CCCOc1cccc(Cn2cc(-c3nnc(-c4ccc(OC(F)F)cc4)o3)ccc2=O)c1` [Example 262, 5-{5-[4-(difluoromethoxy)phenyl]-1,3,4-oxadiazol-2-yl}-1-{[3-(3-methanesulfonylpropoxy)phenyl]methyl}-1,2-dihydropyridin-2-one], the IC50 is reported as < 100 nM.
Work on `CC(C)Oc1ccc(-c2nnc(-c3ccc(=O)n(Cc4cccc(C(C)(C)O)c4)c3)o2)cc1` [Example 263, 1-{[3-(2-hydroxypropan-2-yl)phenyl]methyl}-5-{5-[4-(propan-2-yloxy)phenyl]-1,3,4-oxadiazol-2-yl}-1,2-dihydropyridin-2-one] yielded an IC50 of 100 to 1000 nM.
Work on `CC(C)Oc1ccc(-c2nnc(-c3ccc(=O)n(Cc4cccc(N5CCC(S(C)(=O)=O)CC5)c4)c3)o2)cc1` [Example 264, 1-{[3-[4-methanesulfonylpiperidin-1-yl)phenyl]methyl}-5-{5-[4-(propan-2-yloxy)phenyl]-1,3,4-oxadiazol-2-yl}-1,2-dihydropyridin-2-one] yielded an IC50 of 100 to 1000 nM.
`COc1cccc(Cn2c(C)ccc(-c3nc(-c4ccc(OC(F)(F)F)cc4)no3)c2=O)c1` [Example 265, 1-[(3-methoxyphenyl)methyl]-6-methyl-3-{3-[4-(trifluoromethoxy)phenyl]-1,2,4-oxadiazol-5-yl}-1,2-dihydropyridin-2-one] gave an IC50 of 100 to 1000 nM.
`Cc1ccc(-c2nc(-c3ccc(OC(F)(F)F)cc3)no2)c(=O)n1Cc1cccc(OC(F)F)c1` [Example 266, 1-{[3-(difluoromethoxy)phenyl]methyl}-6-methyl-3-{3-[4-(trifluoromethoxy)phenyl]-1,2,4-oxadiazol-5-yl}-1,2-dihydropyridin-2-one] gave an IC50 of 100 to 1000 nM.
Compound `Cc1ccc(-c2nc(-c3ccc(OC(F)(F)F)cc3)no2)c(=O)n1Cc1cccc(S(C)(=O)=O)c1` [Example 267, 1-[(3-methanesulfonylphenyl)methyl]-6-methyl-3-{3-[4-(trifluoromethoxy)phenyl]-1,2,4-oxadiazol-5-yl}-1,2-dihydropyridin-2-one] has an IC50 of 100 to 1000 nM.
In the case of `Cc1ccc(-c2nc(-c3ccc(OC(F)(F)F)cc3)no2)c(=O)n1Cc1cccc(S(N)(=O)=O)c1` [Example 268, 3-[(6-methyl-2-oxo-3-{3-[4-(trifluoromethoxy)phenyl]-1,2,4-oxadiazol-5-yl}-1,2-dihydropyridin-1-yl)methyl]benzene-1-sulfonamide], the IC50 is reported as 100 to 1000 nM.
In the case of `CN1CCN(c2cccc(Cn3cccc(-c4nc(-c5ccc(OC(F)(F)F)cc5)no4)c3=O)c2)CC1` [Example 270, 1-{[3-(4-methylpiperazin-1-yl)phenyl]methyl}-3-{3-[4-(trifluoromethoxy)phenyl]-1,2,4-oxadiazol-5-yl}-1,2-dihydropyridin-2-one], the IC50 is reported as < 100 nM.

Reference: US20140073634A1 (Institute For Applied Cancer Science/The University of …, priority 2012, published 2014)
